This note sets out measurements from PMC9077246, “Novel spirocyclic tranylcypromine derivatives as lysine-specific demethylase 1 (LSD1) inhibitors” (RSC Advances, 2018).

Test [1] concerns the target T1, Recombinant human LSD1 (172–852 aa) (Homo sapiens, UniProt O60341). The test is described as follows: biochemical.
Experimental: (§1) LSD1 or LSD2 enzyme inhibition assay was performed with Lance Ultra LSD1 Histone H3-Lysine 4 Demethylase Assay kit (Perkin Elmer) according to the manufacturer's protocol. […] The test was carried out in triplicate. And the IC50 data was calculated using the software GraphPad Prism 5, and chosen the equation “sigmoidal dose–response (variable slope)” for curve fitting.
A further test addresses T2, MAO-B (Homo sapiens, UniProt P27338).
T2 sequence (P27338 1-520): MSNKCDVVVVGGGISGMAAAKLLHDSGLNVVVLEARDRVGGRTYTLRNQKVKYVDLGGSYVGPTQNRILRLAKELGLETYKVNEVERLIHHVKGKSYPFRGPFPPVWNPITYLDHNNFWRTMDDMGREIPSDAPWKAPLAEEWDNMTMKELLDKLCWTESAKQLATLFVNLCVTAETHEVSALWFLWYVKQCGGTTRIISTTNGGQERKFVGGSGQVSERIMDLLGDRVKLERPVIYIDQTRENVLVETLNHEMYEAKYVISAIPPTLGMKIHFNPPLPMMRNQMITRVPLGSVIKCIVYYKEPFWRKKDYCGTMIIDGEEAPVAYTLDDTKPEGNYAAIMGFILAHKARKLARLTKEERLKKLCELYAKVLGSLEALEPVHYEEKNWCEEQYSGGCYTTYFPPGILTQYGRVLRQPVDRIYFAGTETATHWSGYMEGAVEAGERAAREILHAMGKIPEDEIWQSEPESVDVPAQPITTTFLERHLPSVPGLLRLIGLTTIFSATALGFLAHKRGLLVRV
Nature of the test: biochemical. The conditions noted are these: MAO-B, IC50, Table 1; mean ± SEM, eight-point experiments, three independent experiments.

A further test has as its target T3, MAO-A (Homo sapiens, UniProt P21397).
T3 sequence (P21397 1-527): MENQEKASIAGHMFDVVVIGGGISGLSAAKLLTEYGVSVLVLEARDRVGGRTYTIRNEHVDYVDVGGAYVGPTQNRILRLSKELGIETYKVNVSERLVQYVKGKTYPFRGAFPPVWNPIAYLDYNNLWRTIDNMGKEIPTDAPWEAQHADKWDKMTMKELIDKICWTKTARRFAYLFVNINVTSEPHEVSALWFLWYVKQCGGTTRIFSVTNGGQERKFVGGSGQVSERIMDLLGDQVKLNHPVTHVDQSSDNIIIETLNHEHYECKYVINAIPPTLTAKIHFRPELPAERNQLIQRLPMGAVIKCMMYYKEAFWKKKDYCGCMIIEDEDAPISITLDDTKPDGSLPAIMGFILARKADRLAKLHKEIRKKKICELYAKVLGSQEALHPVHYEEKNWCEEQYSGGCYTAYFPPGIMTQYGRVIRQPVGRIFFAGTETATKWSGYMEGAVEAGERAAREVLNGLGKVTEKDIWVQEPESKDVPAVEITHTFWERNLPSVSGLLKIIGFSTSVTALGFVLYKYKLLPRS
The test is described as follows: biochemical. Particulars: MAO-A, IC50, Table 1; mean ± SEM, eight-point experiments, three independent experiments.

Test [2] addresses T1, Recombinant human LSD1 (172–852 aa). Particulars: for fold reduction in LSD1 inhibitory potency vs 23a, 23b: 24a, 24b vs 23a; for fold reduction in LSD1 inhibitory potency vs 28a, 28b: 29a, 29b vs 28a; for LSD1 IC50 level in words: potency range in words.
Experimental: as §1

A word on the IC50: it is the midpoint of a concentration-inhibition curve.

Where a name gives a salt, the structure may show the parent alone.

Experimental for MAO-A: (§2) MAO-A and MAO-B enzymes were purchased from Sigma-Aldrich and the inhibition assay was tested with Promega MAO-Glo™ Assay kit according to the manufacturer's protocol. The luminescent signals were detected using Envision (PerkinElmer). The test was carried out in triplicate. And the IC50 data was calculated using the software GraphPad Prism 5, and chosen the equation “sigmoidal dose–response (variable slope)” for curve fitting.
Experimental for MAO-B: as §2

As to `c1ccc(CN[C@@H]2CC23CCc2ccccc23)cc1` (mixture of isomers) [Compound 13a, (2R)-N-Benzyl-2′,3′-dihydrospiro[cyclopropane-1,1′-inden]-2-amine], in test [1], the IC50 stood at 3.3 ± 0.6 µM.
Turning to `Fc1ccccc1CN[C@@H]1CC12CCc1ccccc12` (mixture of isomers) [Compound 15a, (2R)-N-(2-Fluorobenzyl)-2′,3′-dihydrospiro[cyclopropane-1,1′-inden]-2-amine], the IC50 stood at 9.8 ± 2.3 µM against MAO-B and 4.8 ± 0.5 µM on MAO-A.
Turning to `c1cncc(CN[C@@H]2CC23CCc2ccccc23)c1` (mixture of isomers) [Compound 21a, (2R)-N-(Pyridin-3-ylmethyl)-2′,3′-dihydrospiro[cyclopropane-1,1′-inden]-2-amine], the values for the half-maximal inhibitory concentration (IC50) (against MAO-B; against MAO-A; in test [1]) were 15 ± 1 µM, 10.8 ± 1.1 µM and 0.017 ± 0.003 µM, respectively. For the same compound, in test [2] (21a vs 8a, 21b vs 8b), the “fold more potent at LSD1 than 8a and 8b, respectively” value is listed as 10 fold.
In the case of `COc1ccccc1CN[C@@H]1CC12CCc1ccccc12` (stereo in doubt) [Compound 14a, (2R)-N-(2-Methoxybenzyl)-2′,3′-dihydrospiro[cyclopropane-1,1′-inden]-2-amine], the IC50 against MAO-B was 12 ± 1 µM; against MAO-A it was 5.9 ± 1.1 µM.
On to `COc1ccccc1CN[C@H]1CC12CCc1ccccc12` (stereo in doubt) [Compound 14b, (2S)-N-(2-Methoxybenzyl)-2′,3′-dihydrospiro[cyclopropane-1,1′-inden]-2-amine], for which the IC50 against MAO-B is 70 ± 35 µM; at MAO-A, 1.7 ± 0.3 µM.
On the same counts, the results for `Fc1ccccc1CN[C@H]1CC12CCc1ccccc12` (stereo in doubt) [Compound 15b, (2S)-N-(2-Fluorobenzyl)-2′,3′-dihydrospiro[cyclopropane-1,1′-inden]-2-amine] are 32 ± 3 µM and 2.5 ± 0.1 µM.
Take `COc1ccc(Br)cc1CN[C@@H]1CC12CCc1ccccc12` (stereo in doubt) [Compound 16a, (2R)-N-(5-Bromo-2-methoxybenzyl)-2′,3′-dihydrospiro[cyclopropane-1,1′-inden]-2-amine]: the IC50 against MAO-B was 1.2 ± 0.2 µM; against MAO-A, 3.7 ± 0.8 µM.
On the same counts, the results for `COc1ccc(Br)cc1CN[C@H]1CC12CCc1ccccc12` (stereo in doubt) [Compound 16b, (2S)-N-(5-Bromo-2-methoxybenzyl)-2′,3′-dihydrospiro[cyclopropane-1,1′-inden]-2-amine] are 7.7 ± 3.8 µM and 0.39 ± 0.19 µM.
On the same counts, the results for `COc1ccc(CN[C@@H]2CC23CCc2ccccc23)c(Cl)c1OC` (stereo in doubt) [Compound 20a, (2R)-N-(2-Chloro-3,4-dimethoxybenzyl)-2′,3′-dihydrospiro[cyclopropane-1,1′-inden]-2-amine] are 20 ± 1 µM and 1.4 ± 0.1 µM.
For `COc1ccc(CN[C@H]2CC23CCc2ccccc23)c(Cl)c1OC` (stereo in doubt) [Compound 20b, (2S)-N-(2-Chloro-3,4-dimethoxybenzyl)-2′,3′-dihydrospiro[cyclopropane-1,1′-inden]-2-amine] the same measures were 7 ± 0.7 µM and 5 ± 1.8 µM.
With `COc1ncccc1CN[C@H]1CC12CCc1ccccc12` (stereo in doubt) [Compound 22b, (2S)-N-((2-Methoxypyridin-3-yl)methyl)-2′,3′-dihydrospiro[cyclopropane-1,1′-inden]-2-amine], the IC50 is 68 ± 8 µM against MAO-B, more than 100 µM on MAO-A and 0.01 ± 0.005 µM in test [1].
With `Fc1cccnc1CN[C@@H]1CC12CCc1ccccc12` (stereo in doubt) [Compound 24a, (2R)-N-((3-Fluoropyridin-2-yl)methyl)-2′,3′-dihydrospiro[cyclopropane-1,1′-inden]-2-amine], in test [2], the “fold reduction in LSD1 inhibitory potency vs 23a, 23b” value is reported as not below 4 fold. The 50% inhibitory concentration (IC50) in test [1] came to 0.25 ± 0.01 µM.
As to `Fc1cccnc1CN[C@H]1CC12CCc1ccccc12` (stereo in doubt) [Compound 24b, (2S)-N-((3-Fluoropyridin-2-yl)methyl)-2′,3′-dihydrospiro[cyclopropane-1,1′-inden]-2-amine], in test [2], the “fold reduction in LSD1 inhibitory potency vs 23a, 23b” value is reported as not below 4 fold. For the same compound, the half-maximal inhibitory concentration (IC50) in test [1] amounted to 0.47 ± 0.02 µM.
Turning to `O=C(CN[C@@H]1CC12CCc1ccccc12)N1CCOCC1` (stereo in doubt) [Compound 25a, 2-(((2R)-2′,3′-Dihydrospiro[cyclopropane-1,1′-inden]-2-yl)amino)-1-morpholinoethan-1-one hydrochloride], the half-inhibitory concentration (IC50) in test [1] was 1.4 ± 0.1 µM.
On to `O=C(CN[C@H]1CC12CCc1ccccc12)N1CCOCC1` (stereo in doubt) [Compound 25b, 2-(((2S)-2′,3′-Dihydrospiro[cyclopropane-1,1′-inden]-2-yl)amino)-1-morpholinoethan-1-one hydrochloride], for which the IC50 in test [1] stood at 22 ± 4 µM.
As to `N[C@H]1CC12CCc1cc(-c3ccccc3)ccc12` (stereo in doubt) [Compound 28b, (2S)-5′-Phenyl-2′,3′-dihydrospiro[cyclopropane-1,1′-inden]-2-amine hydrochloride], in test [1], the concentration for half-maximal inhibition (IC50) was determined as 2.7 ± 0.2 µM.
As for `Cl.N[C@@H]1CC12CCc1cc(-c3ccc(F)cc3)ccc12` (stereo in doubt) [Compound 29a, (2R)-5′-(4-Fluorophenyl)-2′,3′-dihydrospiro[cyclopropane-1,1′-inden]-2-amine hydrochloride], the “fold reduction in LSD1 inhibitory potency vs 28a, 28b” value in test [2] was “approximately 3 fold”. In test [1], the IC50 turned out to be 0.3 ± 0.01 µM.
For `Cl.N[C@H]1CC12CCc1cc(-c3ccc(F)cc3)ccc12` (stereo in doubt) [Compound 29b, (2S)-5′-(4-Fluorophenyl)-2′,3′-dihydrospiro[cyclopropane-1,1′-inden]-2-amine hydrochloride] the same measures were “approximately 3 fold” and 6 ± 0.8 µM.
In the case of `COc1ccc(F)cc1CN[C@@H]1CC12CCc1cc(-c3ccccc3)ccc12` (stereo in doubt) [Compound 30a, (2R)-N-(5-Fluoro-2-methoxybenzyl)-5′-phenyl-2′,3′-dihydrospiro[cyclopropane-1,1′-inden]-2-amine], the “LSD1 IC50 level in words” value in test [2] was “single digit micromolar range”. For the same compound, the half-inhibitory concentration (IC50) in test [1] stood at 1.7 ± 0.1 µM.
Consider `COc1ccc(F)cc1CN[C@H]1CC12CCc1cc(-c3ccccc3)ccc12` (stereo in doubt) [Compound 30b, (2S)-N-(5-Fluoro-2-methoxybenzyl)-5′-phenyl-2′,3′-dihydrospiro[cyclopropane-1,1′-inden]-2-amine], for which, in test [2], the “LSD1 IC50 level in words” value was “single digit micromolar range”. For the same compound, the half-maximal inhibitory concentration (IC50) in test [1] was 4.4 ± 0.3 µM.
As to `COc1ccc(CN[C@@H]2CC23CCc2cc(-c4ccccc4)ccc23)c(Cl)c1OC` (stereo in doubt) [Compound 31a, (2R)-N-(2-Chloro-3,4-dimethoxybenzyl)-5′-phenyl-2′,3′-dihydrospiro[cyclopropane-1,1′-inden]-2-amine], the “LSD1 IC50 level in words” value in test [2] is “single digit micromolar range”. The half-inhibitory concentration (IC50) in test [1] amounted to 8.9 ± 1.2 µM.
Turning to `COc1ccc(F)cc1CN[C@@H]1CC12CCc1cc(-c3ccc(F)cc3)ccc12` (stereo in doubt) [Compound 32a, (2R)-N-(5-Fluoro-2-methoxybenzyl)-5′-(4-fluorophenyl)-2′,3′-dihydrospiro[cyclopropane-1,1′-inden]-2-amine], in test [2], the “LSD1 IC50 level in words” value is recorded as “single digit micromolar range”. Besides, the concentration for half-maximal inhibition (IC50) in test [1] came out at 2.6 ± 0.5 µM.
As to `NC1CCC(N[C@@H]2C[C@H]2c2ccccc2)CC1` (stereo partly drawn) [Compound 6, N1-[(1R, 2S)-2-phenylcyclopropyl]cyclohexane-1,4-diamine dihydrochloride, reference compound], the IC50 on MAO-A is more than 100 µM.
As for `COc1ccc(CNC2CC23CCc2ccccc23)cc1OC` [Compound 19a, (2R)-N-(3,4-Fimethoxybenzyl)-2′,3′-dihydrospiro[cyclopropane-1,1′-inden]-2-amine], the results for the IC50 on MAO-B and at MAO-A were 15 ± 2 µM and 11.7 ± 2.4 µM, respectively.
On the same counts, the results for `COc1ccc(CNC2CC23CCc2ccccc23)cc1OC` [Compound 19b, (2S)-N-(3,4-Fimethoxybenzyl)-2′,3′-dihydrospiro[cyclopropane-1,1′-inden]-2-amine] are 27 ± 4 µM and 3.1 ± 0.2 µM.
